What all share (assay): KINOMEscan (ScanMAX) kinase profiling
What all share (type): binding

Assay [1] has as its target T1, panel of 468 kinases (Homo sapiens, UniProt Q07002).
T1 construct: purchased KINOMEscan (ScanMAX) service
To be noted: PCTK3; 1 μM; read-out: % control.

Assay [2] has as its target T2, panel of 468 kinases (Homo sapiens, UniProt P29597).
T2 construct: purchased KINOMEscan (ScanMAX) service
To be noted: 1 μM, read-out: % control.

For assay [3], the target named is T3, panel of 468 kinases (Homo sapiens, UniProt P78368).
T3 construct: purchased KINOMEscan (ScanMAX) service
To be noted: CSNK1G2; 1 μM; read-out: % control.

Assay [4] concerns the target T4, panel of 468 kinases (Homo sapiens, UniProt P12931).
T4 construct: purchased KINOMEscan (ScanMAX) service
To be noted: SRC; 1 μM; read-out: % control.

Assay [5] has as its target T5, panel of 468 kinases (Homo sapiens, UniProt Q9Y2H1).
T5 construct: purchased KINOMEscan (ScanMAX) service
Conditions: NDR2; 1 μM; read-out: % control.

For assay [6], the target named is T6, panel of 468 kinases (Homo sapiens, UniProt P19784).
T6 construct: purchased KINOMEscan (ScanMAX) service
To be noted: CSNK2A2; 1 μM; read-out: % control.

Assay [7] addresses T7, panel of 468 kinases (Homo sapiens, UniProt O95835).
T7 construct: purchased KINOMEscan (ScanMAX) service
T7 sequence (O95835 1-1130): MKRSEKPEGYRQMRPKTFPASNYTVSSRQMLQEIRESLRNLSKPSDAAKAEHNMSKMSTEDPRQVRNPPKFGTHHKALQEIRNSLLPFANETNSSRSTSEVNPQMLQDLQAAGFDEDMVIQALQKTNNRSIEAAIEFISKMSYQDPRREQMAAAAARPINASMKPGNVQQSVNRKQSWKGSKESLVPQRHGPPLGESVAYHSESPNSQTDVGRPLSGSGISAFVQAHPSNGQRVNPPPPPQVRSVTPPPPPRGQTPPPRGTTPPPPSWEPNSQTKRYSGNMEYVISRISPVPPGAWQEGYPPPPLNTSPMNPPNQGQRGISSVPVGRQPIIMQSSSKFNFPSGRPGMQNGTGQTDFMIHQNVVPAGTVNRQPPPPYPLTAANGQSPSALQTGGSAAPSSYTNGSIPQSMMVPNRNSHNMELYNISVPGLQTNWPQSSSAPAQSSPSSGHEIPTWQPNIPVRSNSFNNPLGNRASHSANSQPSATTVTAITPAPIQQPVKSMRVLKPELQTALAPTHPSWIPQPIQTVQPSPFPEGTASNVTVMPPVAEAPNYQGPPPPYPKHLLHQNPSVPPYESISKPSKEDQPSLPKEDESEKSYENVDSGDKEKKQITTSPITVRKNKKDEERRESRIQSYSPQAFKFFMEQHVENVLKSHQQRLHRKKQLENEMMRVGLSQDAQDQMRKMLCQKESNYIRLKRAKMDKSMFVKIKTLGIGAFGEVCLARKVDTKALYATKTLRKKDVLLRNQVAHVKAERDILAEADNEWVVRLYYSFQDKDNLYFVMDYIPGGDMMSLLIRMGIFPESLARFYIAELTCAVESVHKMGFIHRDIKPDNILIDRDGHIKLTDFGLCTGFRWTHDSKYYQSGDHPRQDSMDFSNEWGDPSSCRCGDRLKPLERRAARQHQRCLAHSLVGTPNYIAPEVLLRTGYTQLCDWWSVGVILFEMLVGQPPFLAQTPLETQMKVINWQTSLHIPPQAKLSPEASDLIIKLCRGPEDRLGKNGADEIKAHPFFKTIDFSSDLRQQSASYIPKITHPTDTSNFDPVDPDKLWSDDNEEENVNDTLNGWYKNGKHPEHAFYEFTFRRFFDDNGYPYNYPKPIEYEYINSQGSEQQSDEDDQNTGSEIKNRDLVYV
To be noted: LATS1; 1 μM; read-out: % control.

Assay [8] deals with T8, panel of 468 kinases (Homo sapiens, UniProt P36888).
T8 construct: purchased KINOMEscan (ScanMAX) service
T8 sequence (P36888 27-993): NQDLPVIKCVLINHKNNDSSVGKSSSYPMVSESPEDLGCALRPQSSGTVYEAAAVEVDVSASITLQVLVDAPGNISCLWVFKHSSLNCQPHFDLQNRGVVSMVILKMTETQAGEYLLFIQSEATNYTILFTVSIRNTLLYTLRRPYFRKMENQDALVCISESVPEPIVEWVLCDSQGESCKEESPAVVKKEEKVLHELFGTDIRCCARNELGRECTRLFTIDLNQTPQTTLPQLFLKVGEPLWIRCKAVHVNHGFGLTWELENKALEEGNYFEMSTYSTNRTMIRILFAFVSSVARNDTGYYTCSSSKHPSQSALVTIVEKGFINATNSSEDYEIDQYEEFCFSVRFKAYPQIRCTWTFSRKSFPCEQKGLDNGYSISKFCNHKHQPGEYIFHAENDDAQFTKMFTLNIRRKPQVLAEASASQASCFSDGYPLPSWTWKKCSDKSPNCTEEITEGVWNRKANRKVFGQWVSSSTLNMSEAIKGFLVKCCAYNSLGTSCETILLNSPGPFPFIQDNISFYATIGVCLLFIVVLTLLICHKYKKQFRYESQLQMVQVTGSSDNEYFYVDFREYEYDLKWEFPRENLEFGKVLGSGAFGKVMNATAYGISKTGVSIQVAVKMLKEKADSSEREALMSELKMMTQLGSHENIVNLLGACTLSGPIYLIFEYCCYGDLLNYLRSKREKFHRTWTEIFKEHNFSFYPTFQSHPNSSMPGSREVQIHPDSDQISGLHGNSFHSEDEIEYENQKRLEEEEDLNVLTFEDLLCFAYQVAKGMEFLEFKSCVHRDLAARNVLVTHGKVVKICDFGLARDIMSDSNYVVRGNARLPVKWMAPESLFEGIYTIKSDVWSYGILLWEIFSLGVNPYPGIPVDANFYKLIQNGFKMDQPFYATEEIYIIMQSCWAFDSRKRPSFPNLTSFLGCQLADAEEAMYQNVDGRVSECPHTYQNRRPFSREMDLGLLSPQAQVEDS
To be noted: 1 μM, read-out: % control.

Among the data in US12479847B2 (DANA-FARBER CANCER INSTITUTE, INC., priority 2019, dated 2025) are remaining binding values, retold here.

Molecules are shown by their SMILES. Like-named read-outs stand apart in the source and are kept apart here.

T3 sequence (P78368 whole entry): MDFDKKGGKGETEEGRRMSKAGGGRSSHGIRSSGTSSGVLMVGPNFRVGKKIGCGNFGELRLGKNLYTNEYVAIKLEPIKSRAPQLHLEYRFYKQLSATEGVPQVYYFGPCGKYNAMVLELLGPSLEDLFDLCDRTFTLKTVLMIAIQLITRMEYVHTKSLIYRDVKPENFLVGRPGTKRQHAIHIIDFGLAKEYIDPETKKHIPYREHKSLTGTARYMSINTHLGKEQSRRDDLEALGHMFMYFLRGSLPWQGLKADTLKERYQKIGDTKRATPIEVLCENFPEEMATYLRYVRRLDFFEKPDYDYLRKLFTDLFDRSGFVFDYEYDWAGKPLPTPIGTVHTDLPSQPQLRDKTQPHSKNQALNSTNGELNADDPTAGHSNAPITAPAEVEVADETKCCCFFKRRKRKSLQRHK
T5 sequence (Q9Y2H1 whole entry): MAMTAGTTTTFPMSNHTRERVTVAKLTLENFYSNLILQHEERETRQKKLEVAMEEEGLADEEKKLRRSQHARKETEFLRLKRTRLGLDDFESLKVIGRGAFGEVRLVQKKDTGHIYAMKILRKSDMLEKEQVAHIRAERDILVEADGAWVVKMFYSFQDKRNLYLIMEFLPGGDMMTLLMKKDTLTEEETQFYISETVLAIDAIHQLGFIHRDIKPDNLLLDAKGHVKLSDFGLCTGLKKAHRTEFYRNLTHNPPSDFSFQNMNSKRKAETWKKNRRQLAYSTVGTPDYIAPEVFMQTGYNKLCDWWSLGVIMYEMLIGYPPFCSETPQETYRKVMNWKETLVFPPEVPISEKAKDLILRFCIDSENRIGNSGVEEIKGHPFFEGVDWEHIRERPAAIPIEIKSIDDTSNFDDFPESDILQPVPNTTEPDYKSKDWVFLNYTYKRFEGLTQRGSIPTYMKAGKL
T1 sequence (Q07002 whole entry): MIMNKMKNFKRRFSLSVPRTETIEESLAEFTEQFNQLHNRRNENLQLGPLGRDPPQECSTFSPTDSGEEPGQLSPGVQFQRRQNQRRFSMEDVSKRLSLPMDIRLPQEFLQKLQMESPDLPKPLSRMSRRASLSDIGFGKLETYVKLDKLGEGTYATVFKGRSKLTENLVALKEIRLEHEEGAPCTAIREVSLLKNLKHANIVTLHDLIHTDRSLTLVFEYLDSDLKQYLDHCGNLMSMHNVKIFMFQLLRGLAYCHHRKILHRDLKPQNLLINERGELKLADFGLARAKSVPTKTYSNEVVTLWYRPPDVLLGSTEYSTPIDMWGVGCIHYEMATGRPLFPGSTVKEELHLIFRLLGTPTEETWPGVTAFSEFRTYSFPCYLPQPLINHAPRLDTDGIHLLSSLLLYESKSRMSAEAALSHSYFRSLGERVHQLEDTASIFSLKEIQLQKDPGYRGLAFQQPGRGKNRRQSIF
T4 sequence (P12931 whole entry): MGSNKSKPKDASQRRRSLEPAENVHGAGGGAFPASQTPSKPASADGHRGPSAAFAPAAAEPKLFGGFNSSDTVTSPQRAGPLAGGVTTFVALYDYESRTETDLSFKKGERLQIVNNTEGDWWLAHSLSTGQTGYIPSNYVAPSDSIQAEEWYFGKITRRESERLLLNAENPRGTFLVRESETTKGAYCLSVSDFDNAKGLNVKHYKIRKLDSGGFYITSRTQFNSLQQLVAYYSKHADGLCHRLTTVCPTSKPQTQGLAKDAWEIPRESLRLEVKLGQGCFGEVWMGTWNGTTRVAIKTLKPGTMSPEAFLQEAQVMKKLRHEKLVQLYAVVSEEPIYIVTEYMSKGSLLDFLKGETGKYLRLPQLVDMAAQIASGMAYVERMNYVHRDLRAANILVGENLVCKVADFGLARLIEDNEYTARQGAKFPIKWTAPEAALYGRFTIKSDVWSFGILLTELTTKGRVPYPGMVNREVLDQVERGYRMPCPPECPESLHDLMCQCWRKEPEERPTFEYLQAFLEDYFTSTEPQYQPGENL
T2 sequence (P29597 whole entry): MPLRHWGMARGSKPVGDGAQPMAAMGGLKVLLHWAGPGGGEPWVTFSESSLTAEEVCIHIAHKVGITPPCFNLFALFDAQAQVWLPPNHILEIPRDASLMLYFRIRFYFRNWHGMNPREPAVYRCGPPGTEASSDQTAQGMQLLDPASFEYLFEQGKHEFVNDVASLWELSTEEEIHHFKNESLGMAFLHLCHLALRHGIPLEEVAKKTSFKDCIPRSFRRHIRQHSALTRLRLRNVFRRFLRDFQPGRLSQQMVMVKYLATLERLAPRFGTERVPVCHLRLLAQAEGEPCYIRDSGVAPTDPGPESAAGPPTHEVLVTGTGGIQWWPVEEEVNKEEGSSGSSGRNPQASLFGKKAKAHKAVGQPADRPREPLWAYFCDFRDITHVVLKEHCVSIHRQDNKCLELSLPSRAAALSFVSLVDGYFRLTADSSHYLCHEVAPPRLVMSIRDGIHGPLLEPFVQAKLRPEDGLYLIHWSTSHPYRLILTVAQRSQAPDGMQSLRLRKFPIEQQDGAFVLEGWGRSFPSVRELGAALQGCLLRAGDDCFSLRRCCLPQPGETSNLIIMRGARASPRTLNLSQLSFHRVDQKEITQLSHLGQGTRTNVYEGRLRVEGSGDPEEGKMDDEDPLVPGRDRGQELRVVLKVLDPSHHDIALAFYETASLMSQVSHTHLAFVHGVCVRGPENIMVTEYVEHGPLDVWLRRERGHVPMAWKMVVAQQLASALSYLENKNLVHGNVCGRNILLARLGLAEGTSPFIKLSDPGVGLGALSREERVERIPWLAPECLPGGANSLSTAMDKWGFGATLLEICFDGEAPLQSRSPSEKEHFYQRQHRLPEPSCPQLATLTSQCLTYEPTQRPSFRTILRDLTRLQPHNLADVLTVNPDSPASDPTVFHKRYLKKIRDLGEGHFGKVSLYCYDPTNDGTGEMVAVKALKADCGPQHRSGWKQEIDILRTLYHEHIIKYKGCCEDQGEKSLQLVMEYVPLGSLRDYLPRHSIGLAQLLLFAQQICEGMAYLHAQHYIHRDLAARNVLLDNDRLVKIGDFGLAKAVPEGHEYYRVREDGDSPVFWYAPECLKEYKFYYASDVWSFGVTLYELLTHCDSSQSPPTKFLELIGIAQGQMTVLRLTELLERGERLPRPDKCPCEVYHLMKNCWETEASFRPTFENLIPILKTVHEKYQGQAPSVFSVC
T6 sequence (P19784 whole entry): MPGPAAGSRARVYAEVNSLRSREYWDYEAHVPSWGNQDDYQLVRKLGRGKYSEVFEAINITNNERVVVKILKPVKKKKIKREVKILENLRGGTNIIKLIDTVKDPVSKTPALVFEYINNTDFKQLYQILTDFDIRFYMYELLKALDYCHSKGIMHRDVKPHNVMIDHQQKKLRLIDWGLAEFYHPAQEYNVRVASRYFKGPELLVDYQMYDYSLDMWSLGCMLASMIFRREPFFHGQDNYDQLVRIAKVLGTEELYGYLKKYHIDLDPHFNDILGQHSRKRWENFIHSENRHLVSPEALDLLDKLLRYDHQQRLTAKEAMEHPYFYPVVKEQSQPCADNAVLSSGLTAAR

As to `CNc1nc(Nc2ccc(S(=O)(=O)N3CCC(N4CCOCC4)CC3)cc2OC)nc2[nH]cc(Cl)c12` [Compound 12, 5-chloro-N2-(2-methoxy-4-((4-morpholinopiperidin-1-yl)sulfonyl)phenyl)-N4-methyl-7H-pyrrolo[2,3-d]pyrimidine-2,4-diamine], the remaining binding at 1 µM came to 100% on panel of 468 kinases [1]; 90% on panel of 468 kinases [2] (TYK2(JH1domain-catalytic)); 88% on panel of 468 kinases [2] (TYK2(JH2domain-pseudokinase)); 63% on panel of 468 kinases [3]; 100% on panel of 468 kinases [4]; 100% at panel of 468 kinases [5]. The remaining binding at 1 µM on panel of 468 kinases [6] is 97%; at panel of 468 kinases [7] it was 100%; at panel of 468 kinases [8] (FLT3-autoinhibited), 87%; at panel of 468 kinases [8] (FLT3) it was 100%.

Consider `CNc1nc(Nc2ccc(P3(=O)CCN(C4CCOCC4)CC3)cc2OC)nc2[nH]cc(Cl)c12` [Compound 77, 4-(4-((5-chloro-4-(methylamino)-7H-pyrrolo[2,3-d]pyrimidin-2-yl)amino)-3-methoxyphenyl)-1-(tetrahydro-2H-pyran-4-yl)-1,4-azaphosphinane 4-oxide], for which the remaining binding at 1 µM worked out at 100% at panel of 468 kinases [1]; 66% at panel of 468 kinases [2] (TYK2(JH1domain-catalytic)); 82% on panel of 468 kinases [2] (TYK2(JH2domain-pseudokinase)); 96% on panel of 468 kinases [3]; 100% on panel of 468 kinases [4]; 100% at panel of 468 kinases [5]. In addition, the remaining binding at 1 µM on panel of 468 kinases [6] is 80%; on panel of 468 kinases [7], 100%; on panel of 468 kinases [8] (FLT3-autoinhibited) it was 94%; at panel of 468 kinases [8] (FLT3) it was 86%.

Take `CNc1nc(Nc2ccc(C(=O)N3CCC(N4CCOCC4)CC3)c3c2OCO3)nc2[nH]cc(Cl)c12` [Compound 75, (7-((5-chloro-4-(methylamino)-7H-pyrrolo[2,3-d]pyrimidin-2-yl)amino)benzo[d][1,3]dioxol-4-yl)(4-morpholinopiperidin-1-yl)methanone]: the remaining binding at 1 µM on panel of 468 kinases [1] was determined as 100%; on panel of 468 kinases [2] (TYK2(JH1domain-catalytic)) it was 46%; on panel of 468 kinases [2] (TYK2(JH2domain-pseudokinase)), 100%; at panel of 468 kinases [3], 2.9%; on panel of 468 kinases [4], 100%; on panel of 468 kinases [5], 100%. Further, the remaining binding at 1 µM at panel of 468 kinases [6] came out at 49%; at panel of 468 kinases [7], 100%; on panel of 468 kinases [8] (FLT3-autoinhibited) it was 83%; at panel of 468 kinases [8] (FLT3) it was 40%.
